Test results as given in patent US20230103631A1, “PEPTIDES AS SELECTIVE GIP RECEPTOR AGONISTS” (Sanofi, priority 2020, published 2023).
pEC50: −log10 of the molar value. *1 amine or outer side, *2 acyl side, *3 side chain or, on linkers, in order; H or OH if unused. Where a SMILES comes first, the peptide text is derived from it. Side-chain parts run from the residue outwards. [ ]: non-standard residue; d: D form. The star is where a group is joined. C18 diacid = O=C(O)CCCCCCCCCCCCCCCCC(=O)*; γGlu = O=C(O)[C@H](CCC(=O)[*:2])N[*:1]; AEEA = NCCOCCOCC(=O)O; Aib = CC(C)(N)C(=O)O

Experiments:
[1] = Chemical stability assessment (relative purity loss by UHPLC-UV); assay type: physicochemical
Method: Purity of a peptide batch was determined through UHPLC/MS prior to chemical stability measurement. The target concentration was […] pure compound. Solutions from solid samples were prepared in the following buffer systems with a concentration of ˜300 μM compound based on the previously determined % purity:
Chemical stability buffer system A) 20 mM phosphate buffer pH 7.4,
Chemical stability buffer system B) 8 mM phosphate buffer pH 7.4, 14 mg/ml propylene glycol, 5.5 mg/ml phenol
Chemical stability buffer system C) 100 mM phosphate buffer pH 7.4, 2.7 mg/ml m-cresol
Prepared solutions were filtered through […] pore size and filled into sterilized glass containers under laminar flow conditions.
Glass containers were stored for 28 days at 5 and 40° C. After this time, the samples were centrifuged for 15 min at 2500 RCF. Then 1.5 μl of the undiluted supernatant were analysed with UHPLC-UV.
The chemical stability was rated through the relative loss of purity calculated by the equation:
[(purity after 28 days at 5° C.)−(purity after 28 days at 40° C.)]/(purity after 28 days at 5° C.)]*100%
The purity is calculated as
[(peak area peptide)/(total peak area)]*100%
The analytical methods used were Analytical UHPLC Method B or C.
Peptide samples were prepared in Chemical stability buffer system A or B and stability was assessed as described in Methods.

[2] = target: human GLP-1 receptor (hGLP-1R) (Homo sapiens, UniProt P43220); assay: cAMP HTRF assay, HEK-293 cell line over-expressing human GLP-1 receptor; assay type: cell-based; conditions: HEK-293, cAMP, 0% HSA
Sequence of human GLP-1 receptor (hGLP-1R) (P43220 24-463): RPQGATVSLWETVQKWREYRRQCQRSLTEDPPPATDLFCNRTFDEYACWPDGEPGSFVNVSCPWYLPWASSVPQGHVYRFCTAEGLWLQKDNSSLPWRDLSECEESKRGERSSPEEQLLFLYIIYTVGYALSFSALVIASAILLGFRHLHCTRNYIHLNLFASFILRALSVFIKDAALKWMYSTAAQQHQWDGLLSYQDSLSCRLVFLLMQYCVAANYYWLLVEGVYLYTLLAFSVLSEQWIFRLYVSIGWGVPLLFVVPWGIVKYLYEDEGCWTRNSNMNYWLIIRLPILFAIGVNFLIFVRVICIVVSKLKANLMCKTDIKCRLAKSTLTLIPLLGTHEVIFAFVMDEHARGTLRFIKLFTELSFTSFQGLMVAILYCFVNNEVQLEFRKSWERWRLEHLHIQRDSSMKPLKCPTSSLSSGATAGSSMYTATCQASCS
Method: Each vial contained 1.8 ml cells. The vials were slowly frozen to −80° C. in isopropanol, and then transferred in liquid nitrogen for storage.
Prior to their use, frozen cells were thawed quickly at 37° C. and washed (5 min at 900 rpm) with 20 ml cell buffer (1× HBSS; 20 mM HEPES, plus 0.1% HSA if indicated in Example conditions).
For measurement of cAMP generation, 5 μl cells (final 5000 cells/well) and 5 μl of test compound were added to a 384-well plate, followed by incubation for 30 min at room temperature.
The cAMP generated was determined using a kit from Cisbio Corp. based on HTRF (Homogenous Time Resolved Fluorescence). The cAMP assay was performed according to manufacturer's instructions (Cisbio).

[3] = Dynamic light scattering (DLS) for the assessment of physical stability; assay type: physicochemical
Description: A monochromatic and coherent light beam (laser) is used to illuminate the liquid sample. Dynamic Light Scattering (DLS) measures light scattered from particles (1 nm≤radius≤1 μm) that undergo Brownian motion. This motion is induced by collisions between the particles and solvent molecules, that themselves are moving due to their thermal energy. The diffusional motion of the particles results in temporal fluctuations of the scattered light (R. Pecora, Dynamic Light Scattering: Applications of Photon Correlation Spectroscopy, Plenum Press, 1985).
The scattered light intensity fluctuations are recorded and transformed into an autocorrelation function. By fitting the autocorrelation curve to an exponential function, the diffusion coefficient D of the particles in solution can be derived. The diffusion coefficient is then used to calculate the hydrodynamic radius Rh (or apparent Stokes radius) through the Stokes-Einstein equation assuming spherical particles. This calculation is defined in ISO 13321 and ISO 22412 (International Standard ISO13321 Methods for Determination of Particle Size Distribution Part 8: Photon Correlation Spectroscopy, International Organisation for Standardisation (ISO) 1996; International Standard ISO22412 Particle Size Analysis—Dynamic Light Scattering, International Organisation for Standardisation, 2008).
In case of polydisperse samples, the autocorrelation function is the sum of the exponential decays corresponding to each of the species. The temporal fluctuations of the scattered light can then be used to determine the size distribution profile of the particle fraction or family. The first order result is an intensity distribution of scattered light as a function of the particle size. The intensity distribution is naturally weighted according to the scattering intensity of each particle fraction or family. For biological materials or polymers, the particle scattering intensity is proportional to the square of the molecular weight. Thus, small amount of aggregates/agglomerates or presence or a larger particle species can dominate the intensity distribution. However, this distribution can be used as a sensitive detector for the presence of large material in the sample.
The DLS technique produces distributions with inherent peak broadening. The polydispersity index % Pd is a measure of the width of the particle size distribution and is calculated by standard methods described in ISO13321 and ISO22412 [International Standard ISO13321 Methods for Determination of Particle Size Distribution Part 8: Photon Correlation Spectroscopy, International Organisation for Standardisation (ISO) 1996; International Standard ISO22412 Particle Size Analysis—Dynamic Light Scattering, International Organisation for Standardisation (ISO) 2008].
Solutions from solid samples were prepared in buffer systems (see below) with a target concentration of 300 μM compound based on the previously determined % purity.
DLS buffer system A) 20 mM phosphate buffer pH 7.4
DLS buffer system B) 8 mM phosphate buffer pH 7.4, 14 mg/ml propylene glycol, 5.5 mg/ml phenol
DLS buffer system C) 100 mM phosphate buffer pH 7.4, 2.7 mg/ml m-cresol Solutions were filtered through 0.22 μm pore size and filled into sterilized glass containers under laminar flow conditions. For every peptide solution, the apparent hydrodynamic radius (Rh), the corresponding Scattering Intensity (I), and the Mass Contribution (M) were determined as an average over 3-6 replicates from the intensity distribution of the scattered light averaging only high-quality measurements. Relative standard deviations (RSD) for these parameters were calculated from the same number of replicates. […]

physchem = assay type: physicochemical
Method: Prior to the solubility measurement of a peptide batch, its purity was determined through UHPLC/MS. […] Therefore, solutions from solid samples were prepared in a buffer system with a concentration of 10 mg/ml compound based on the previously determined % purity: Solubility buffer system A) 100 mM phosphate buffer pH 7.4 […] Solubility buffer system C) 100 mM phosphate buffer pH 7.4, 2.7 mg/ml m-cresol UHPLC-UV was performed after 1 h of gentle agitation and storage at 5° C. over night (24 h) from the supernatant, which was obtained after 15 min of centrifugation at 2500 RCF (relative centrifugal acceleration). […] The different UV extinction coefficients of sample and reference peptide were calculated based on the different amino acid sequences and considered in the concentration calculation. The analytical method used was Analytical UHPLC Method A. Peptide samples were prepared in solubility buffer system A or C and solubility was assessed as described in Methods.

[4] = DLS buffer system A, 4 weeks storage at 40° C.
[5] = DLS buffer system B (phenol), 0 weeks
[6] = DLS buffer system B (phenol), 4 weeks storage at 40° C.

With CC[C@H](C)[C@H](NC(=O)[C@H](Cc1ccccc1)NC(=O)[C@H](CCC(=O)O)NC(=O)[C@H](CCC(=O)O)NC(=O)[C@H](CCC(N)=O)NC(=O)[C@H](Cc1c[nH]cn1)NC(=O)[C@@H](NC(=O)[C@H](CCCNC(=N)N)NC(=O)[C@H](CC(=O)O)NC(=O)[C@H](CCCCNC(=O)COCCOCCNC(=O)COCCOCCNC(=O)CC[C@H](NC(=O)CCCCCCCCCCCCCCCCC(=O)O)C(=O)O)NC(=O)C(C)(C)NC(=O)[C@@H](NC(=O)[C@H](CO)NC(=O)[C@H](CC(C)C)NC(=O)[C@H](CC(=O)O)NC(=O)[C@H](CO)NC(=O)[C@@H](NC(=O)[C@H](Cc1ccccc1)NC(=O)[C@@H](NC(=O)CNC(=O)[C@H](CCC(=O)O)NC(=O)C(C)(C)NC(=O)[C@@H](N)Cc1ccc(O)cc1)[C@@H](C)O)[C@@H](C)CC)[C@@H](C)CC)[C@@H](C)CC)C(=O)N[C@@H](CCC(=O)O)C(=O)N[C@@H](Cc1c[nH]c2ccccc12)C(=O)N[C@@H](CC(C)C)C(=O)N[C@@H](CC(C)C)C(=O)N[C@@H](C)C(=O)N[C@@H](CCC(N)=O)C(=O)NCC(=O)N1CCC[C@H]1C(=O)N[C@@H](CO)C(=O)N[C@@H](CO)C(=O)NCC(=O)N[C@@H](C)C(=O)N1CCC[C@H]1C(=O)N1CCC[C@H]1C(=O)N1CCC[C@H]1C(=O)N[C@@H](CO)C(N)=O [SEQ ID NO: 9, H2N-Y-Aib-E-G-T-F-I-S-D-I-S-I-Aib-K[{AEEA}2-gGlu-C18OH]-DRIHQEEFIEWILAQGPSSGAPPPS-NH2] (H-Y[Aib]EGTFISDLSI[Aib]K([AEEA-AEEA-γGlu-C18 diacid])DRIHQEEFIEWLLAQGPSSGAPPPS-NH2) the “Relative purity loss over 28 days at 40° C.” value ([1]; Chemical stability buffer system A: 20 mM phosphate buffer pH 7.4) was 6.9%, the “Relative purity loss over 28 days at 40° C.” value ([1]; Chemical stability buffer system B: 8 mM phosphate buffer pH 7.4, 14 mg/ml propylene glycol, 5.5 mg/ml phenol) was 8.2% and the pEC50 [2] was less than 8.00. For the same compound, the “I and SD (Scattering Intensity)” value ([3]; DLS buffer system A, 0 weeks) was 80 ± 3%, the “M and SD (Mass Contribution)” value ([3]; DLS buffer system A, 0 weeks) was 100 ± 0% and the “apparent Rh and SD” value ([3]; DLS buffer system A, 0 weeks) was 1.86 ± 0.03 nm. For the same compound, the “I and SD (Scattering Intensity)” value [3, 4] was 80 ± 3%, the “M and SD (Mass Contribution)” value [3, 4] was 100 ± 0% and the “apparent Rh and SD” value [3, 4] was 1.87 ± 0.03 nm. The “I and SD (Scattering Intensity)” value [3, 5] was 82 ± 3%, the “M and SD (Mass Contribution)” value [3, 5] was 100 ± 0% and the “apparent Rh and SD” value [3, 5] was 1.85 ± 0.04 nm. The “I and SD (Scattering Intensity)” value [3, 6] was 97 ± 4%, the “M and SD (Mass Contribution)” value [3, 6] was 100 ± 0% and the “apparent Rh and SD” value [3, 6] was 1.73 ± 0.03 nm.

CC[C@H](C)[C@H](NC(=O)[C@H](CCCNC(=N)N)NC(=O)[C@H](CC(=O)O)NC(=O)[C@H](CCCCNC(=O)COCCOCCNC(=O)COCCOCCNC(=O)CC[C@H](NC(=O)CCCCCCCCCCCCCCCCC(=O)O)C(=O)O)NC(=O)C(C)(C)NC(=O)[C@@H](NC(=O)[C@H](CO)NC(=O)[C@H](CC(C)C)NC(=O)[C@H](CC(=O)O)NC(=O)[C@H](CO)NC(=O)[C@@H](NC(=O)[C@H](Cc1ccccc1)NC(=O)[C@@H](NC(=O)CNC(=O)[C@H](CCC(=O)O)NC(=O)C(C)(C)NC(=O)[C@@H](N)Cc1ccc(O)cc1)[C@@H](C)O)[C@@H](C)CC)[C@@H](C)CC)C(=O)N[C@@H](Cc1c[nH]cn1)C(=O)N[C@@H](CCC(N)=O)C(=O)NC(C)(C)C(=O)N[C@@H](CCC(=O)O)C(=O)N[C@@H](Cc1ccccc1)C(=O)N[C@H](C(=O)N[C@@H](CCC(=O)O)C(=O)N[C@@H](Cc1c[nH]c2ccccc12)C(=O)N[C@@H](CC(C)C)C(=O)N[C@@H](CC(C)C)C(=O)N[C@@H](C)C(=O)N[C@@H](CCC(N)=O)C(=O)NCC(=O)N1CCC[C@H]1C(=O)N[C@@H](CO)C(=O)N[C@@H](CO)C(=O)NCC(=O)N[C@@H](C)C(=O)N1CCC[C@H]1C(=O)N1CCC[C@H]1C(=O)N1CCC[C@H]1C(=O)N[C@@H](CO)C(N)=O)[C@@H](C)CC [SEQ ID NO: 4, H2N-Y-Aib-E-G-T-F-I-S-D-I-S-I-Aib-K[{AEEA}2-gGlu-C18OH]-D-R-I-H-Q-Aib-E-F-I-E-W-I-L-A-Q-G-P-S-S-G-A-P-P-P-S-NH2] (H-Y[Aib]EGTFISDLSI[Aib]K([AEEA-AEEA-γGlu-C18 diacid])DRIHQ[Aib]EFIEWLLAQGPSSGAPPPS-NH2) showed a pEC50 [2] of less than 8.00, a Soluble amount (physchem; 24 h, pH 7.4) greater than 8.4 mg/mL and a solubility at 24 h (physchem; pH 7.4, Soluble amount) greater than 9500 µg/mL. The “I and SD (Scattering Intensity)” value ([3]; DLS buffer system A, 0 weeks) was 93 ± 1%, the “M and SD (Mass Contribution)” value ([3]; DLS buffer system A, 0 weeks) was 100 ± 0% and the “apparent Rh and SD” value ([3]; DLS buffer system A, 0 weeks) was 1.91 ± 0.05 nm. For the same compound, the “I and SD (Scattering Intensity)” value [3, 4] was 93 ± 1%, the “M and SD (Mass Contribution)” value [3, 4] was 100 ± 0% and the “apparent Rh and SD” value [3, 4] was 1.9 ± 0.04 nm.
